Results published in ChEMBL document CHEMBL1126388, “Synthesis of metabolically stable arylpiperazine 5-HT1A receptor agonists” (Bioorg Med Chem Lett, 1992).

Assays:
Mus musculus [1] = experiment: Effective dose required for hypothermia activity after 20 min of oral administration at 2.9 degree F temp in mouse; assay type: functional
Mus musculus [2] = experiment: Effective dose required for hypothermia activity after subcutaneous administration at 3.8 degree F temp in mouse; assay type: functional; conditions: sc
[3] = biological target: T1, 5-hydroxytryptamine receptor 1A (Mus musculus, UniProt Q64264); experiment: Compound was tested for binding affinity to 5-hydroxytryptamine 1A receptor using [3H]8-OH-DPAT as a radioligand
T1 sequence (Q64264 whole entry): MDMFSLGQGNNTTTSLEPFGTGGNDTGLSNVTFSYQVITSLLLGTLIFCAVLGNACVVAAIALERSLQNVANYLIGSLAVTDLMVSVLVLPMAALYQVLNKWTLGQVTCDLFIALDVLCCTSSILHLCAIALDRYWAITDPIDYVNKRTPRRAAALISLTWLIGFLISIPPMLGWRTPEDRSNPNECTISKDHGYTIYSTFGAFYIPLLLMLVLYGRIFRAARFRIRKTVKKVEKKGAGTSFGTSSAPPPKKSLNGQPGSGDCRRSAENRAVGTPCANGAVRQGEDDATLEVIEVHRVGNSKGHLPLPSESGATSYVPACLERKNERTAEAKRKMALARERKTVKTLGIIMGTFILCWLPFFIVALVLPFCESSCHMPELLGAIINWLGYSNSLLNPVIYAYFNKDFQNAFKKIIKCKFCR

Mus musculus [4] = experiment: Effective dose required for hypothermia activity after subcutaneous administration at 1.9 degree F temp in mouse; assay type: functional; conditions: sc
Mus musculus [5] = experiment: Effective dose required for hypothermia activity after subcutaneous administration at 6.4 degree F temp in mouse; assay type: functional; conditions: sc
Mus musculus [6] = experiment: Effective dose required for hypothermia activity after >120 min of oral administration at 4.0 degree F temp in mouse; assay type: functional; conditions: 2 h

Compound	ED50 (Mus musculus [1]) [µmol/kg]	ED50 (Mus musculus [2]) [µmol/kg]	Ki [3] [nM]	ED50 (Mus musculus [4]) [µmol/kg]	ED50 (Mus musculus [5]) [µmol/kg]	ED50 (Mus musculus [6]) [µmol/kg]
O=C1c2ccccc2S(=O)(=O)N1CCCCN1CCN(c2ncccn2)CC1 [IPSAPIRONE]	0.23	0.00527	12.1	–	–	–
O=C1c2ccccc2S(=O)(=O)N1C[C@@H]1C[C@@H]1CN1CCN(c2ncccn2)CC1	–	–	43.7	> 0.055	–	–
O=C1c2ccccc2S(=O)(=O)N1C[C@H]1C[C@@H]1CN1CCN(c2ncccn2)CC1	–	–	8.7	–	0.0032	0.19
